According to patent US12589101B2, “Cyclodextrin protein drug conjugates” (Regeneron Pharmaceuticals, Inc., priority 2017, dated 2026):
Values after ≈ are worked out from the molar mass of the structure shown.

What was measured:
[1] = test system: T1, LXR; assay: THP1/LXR-Luc/Her2 bioassay (LXR activation, luciferase); format: cell-based; conditions: THP1/LXR-Luc/Her2 cells, 48-hour incubation
T1 construct: other: THP1/LXR-Luc/Her2 cells, 48-hour incubation, relative to free payload 1d; other: THP1/LXR-Luc/Her2 cells, 48-hour incubation; other: THP1/Her2/LXR-Luc cells; other: differentiated THP1/LXR-Luc cells, 48 hours; other: THP1/LXR-Luc cells, PMA
Procedure: To test the comparability of ADCs with and without CDs containing LXR agonists anti-HER2 Ab ADC with and without CD were tested for their ability to activate LXR in a THP1/LXR-Luc/Her2 bioassay. In the assay, either THP1/LXR-Luc cells or THP1/LXR-Luc/Her2 cells were seeded onto white 96 well plates at 30,000 cells/well in media containing RPMI supplemented with 10% FBS and pencillin/streptomycinin (complete media). Subsequently 3-fold serial dilutions of antibody drug conjugates, unconjugated antibodies, or free payloads were added to the cells at final concentration ranging from 100 nM to 0.01 nM. After a 48-hour incubation, luciferase activity was determined after the addition of One-Glo™ reagent (Promega, E6130) to each well of cells. Relative light units (RLUs) were measured on a Victor luminometer (PerkinElmer) and the EC50 values were determined using a four-parameter logistic equation over a 10-point dose response curve (GraphPad Prism).

[2] = Solubility of linker-payloads (LC-MS standard curve, saturated solution); format: physicochemical; conditions: aqueous with cosolvent or surfactant or cyclodextrin, thermodynamic from solid, in 10% DMSO/H2O; read-out: Solubility in other solvents

Row | SMILES | EC50 [1] [nM] | Maximal activation ([1]; relative to free payload 1d) | solubility at 10 min [2] [µg/mL]
1 | C[C@]1(C(=O)NC(=O)[C@@]2(C)CCC[C@]3(C)c4cc(O)ccc4CC[C@@H]23)CCC[C@]2(C)c3cc(N)ccc3CC[C@@H]12 [Example 1d, (1S,4aS,10aR)-N-[(1S,4aS,10aR)-6-Amino-1,4a-dimethyl-1,2,3,4,4a,9,10,10a-octahydrophenanthrene-1-carbonyl]-6-hydroxy-1,4a-dimethyl-1,2,3,4,4a,9,10,10a-octahydrophenanthrene-1-carboxamide] | 2.8 | Full activation | –
2 | CCCC1O[C@@H]2C[C@H]3[C@@H]4CCC5=CC(=O)C=C[C@]5(C)[C@H]4[C@@H](O)C[C@]3(C)[C@]2(C(=O)COc2ccc(NC(=O)[C@H](C)NC(=O)[C@@H](NC(=O)[C@@H](CCCCNC(=O)COC3CCCCCc4c3nnn4CC3OC4OC5C(CO)OC(OC6C(CO)OC(OC7C(CO)OC(OC8C(CO)OC(OC9C(CO)OC(OC3C(O)C4O)C(O)C9O)C(O)C8O)C(O)C7O)C(O)C6O)C(O)C5O)NC(=O)CCOCCOCCOCCOCCNC(=O)CCC(=O)N3Cc4ccccc4C#Cc4ccccc43)C(C)C)cc2)O1 (stereo partly drawn) [Ex46] | – | – | 100 (≈ 39.7 µM)
